Where two headings read alike, the source gives them in different places.
Legend:
clinical = details: both, human, in vivo, po
[1] = PubChem, cited from earlier work
[2] = reported in the literature, ref numbers not given; cited from earlier work
[3] = Comparative urine analysis after ingesting cough syrup (LC-MS/MS, creatinine-normalized); format: in vivo, humans; details: 15 mL cough syrup oral; for k el / MRT / Tmax / half-life: human, in vivo; for MRT: reciprocal of kel; for Tmax: seven volunteers; for half-life: time from Cmax to half of Cmax
[4] = Drug clearance study by breathing through face masks (exhaled breath, LC-MS/MS); details: for MRT / Tmax / half-life / k el: both, human, in vivo, po, 15 mL
[5] = both, human, in vivo, po
[6] = exhaled breath, 15 mL cough syrup oral

Row | SMILES | MRT (clinical) [h] | Tmax (clinical) [h] | k el (clinical) [s⁻¹] | pKa [1] | pKa ([1]; listed as Clp) | plasma t1/2 [2] | detection window [3] [h] | k el [3] [s⁻¹] | MRT [3] [h] | Tmax [3] [h] | half-life [3] [h] | MRT [4] [h] | Tmax [4] [h] | half-life [4] [h] | k el [4] [s⁻¹] | detection window [4, 6] [h] | Cmax in exhaled breath [4, 6] [ng/m^3] | half-life (clinical) [h] | detection window [5] [h]
1 | CN(C)CCC(c1ccc(Cl)cc1)c1ccccn1 (stereo not shown) [Chlorpheniramine] | 34.2 ± 4.6 | 13.1 ± 5 | 8.33e-06 | 9.5^36 | ~9.5 |  |  |  |  |  |  |  |  |  |  |  |  |  | 
2 | COc1ccc2c3c1O[C@H]1[C@@H](O)C=C[C@H]4[C@@H](C2)N(C)CC[C@@]341 [Codeine] |  |  |  |  |  | 2 to 3 h | 68.2 ± 8.3 | 8.33e-05 | 4.6 ± 2.1 | 2.1 ± 1.3 | 3.3 ± 0.7 | 3.9 ± 0.8 | 1.9 ± 1 | 2.9 ± 0.8 | 8.33e-05 | 61.3 ± 12.7 |  |  | 
3 | CN[C@@H](C)[C@H](O)c1ccccc1 [Ephedrine] |  |  |  |  |  | approximately 6 h | 79.9 ± 11.4 | 2.78e-05 | 10.4 ± 3.3 | 2.7 ± 1.8 | 6.2 ± 0.6 | 14.5 ± 4.1 | 6.9 ± 1.1 | 10 ± 2.8 | 2.78e-05 | 92.6 ± 9.1 | 10.8 ± 1.6 |  | 
4 | COc1ccccc1OCC(O)CO (stereo not shown) [Guaifenesin] | 4.8 ± 4.2 | 0.9 ± 0.2 | 0.000111 |  |  | ~1 h |  |  |  |  |  |  |  |  |  |  |  | 2.1 ± 0.9 | 65.1 ± 18.1

From paper PMC12096346, “Disposable Face Masks for Noninvasive Drug Detection: A Proof-of-Concept Study with Cough Syrup Constituents” (Analytical Chemistry, 2025)
